Test results published in patent US20220251163A1 (Sinopep-Allsino Biopharmaceutical Co., Ltd., priority 2019, published 2022).
*1 amine or outer side, *2 acyl side, *3 side chain or, on linkers, in order; H or OH if unused. Where a SMILES comes first, the peptide text is derived from it. Side-chain parts run from the residue outwards. [ ]: non-standard residue; d: D form. The star is where a group is joined. C18 diacid = O=C(O)CCCCCCCCCCCCCCCCC(=O)*; γGlu = O=C(O)[C@H](CCC(=O)[*:2])N[*:1]; AEEA = NCCOCCOCC(=O)O; Aib = CC(C)(N)C(=O)O

How the values were obtained:
mGLP-1R = target: T1, mGLP-1R (Mus musculus, UniProt O35659); test: GLP-1R agonist activity, cAMP in transfected HEK293 cells; type: cell-based
T1 construct: expressed in transfected cells; host or cells: HEK293
T1 sequence (O35659 22-463): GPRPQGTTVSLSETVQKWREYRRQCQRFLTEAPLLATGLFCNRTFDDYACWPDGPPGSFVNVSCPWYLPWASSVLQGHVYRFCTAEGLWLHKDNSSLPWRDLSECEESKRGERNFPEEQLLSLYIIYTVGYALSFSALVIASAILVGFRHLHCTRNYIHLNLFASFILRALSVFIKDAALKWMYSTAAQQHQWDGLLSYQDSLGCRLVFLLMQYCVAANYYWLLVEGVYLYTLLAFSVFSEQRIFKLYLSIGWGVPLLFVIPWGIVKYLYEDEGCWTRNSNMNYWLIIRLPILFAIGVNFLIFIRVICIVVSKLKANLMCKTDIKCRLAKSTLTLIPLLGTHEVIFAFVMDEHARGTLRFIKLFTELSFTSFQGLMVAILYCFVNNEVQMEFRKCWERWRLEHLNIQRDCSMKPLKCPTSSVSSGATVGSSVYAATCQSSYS
Method: HEK293 cells were co-transfected with cDNA encoding GLP-1R or GIPR. In a test for determining the compound, the cells were inoculated in a 96-well plate 2 h in advance, the polypeptide compound was dissolved with DMSO, and diluted to different multiples with a culture medium containing 0.1% bovine serum albumin and added to the co-transfected cells. After the cells were incubated for 20 min, fluorescence values were determined through microplate reader of an ELISA kit of the Cisbo Company, a standard curve was established to convert the fluorescence values into corresponding cAMP values, and the EC50 value of the compound was calculated through nonlinear regression of Graphpad Prism 5.0 software.

mGIPR = target: T2, mGIPR (Mus musculus, UniProt Q0P543); test: GIPR agonist activity, cAMP in transfected HEK293 cells; type: cell-based
T2 construct: expressed in transfected cells; host or cells: HEK293
T2 sequence (Q0P543 19-460): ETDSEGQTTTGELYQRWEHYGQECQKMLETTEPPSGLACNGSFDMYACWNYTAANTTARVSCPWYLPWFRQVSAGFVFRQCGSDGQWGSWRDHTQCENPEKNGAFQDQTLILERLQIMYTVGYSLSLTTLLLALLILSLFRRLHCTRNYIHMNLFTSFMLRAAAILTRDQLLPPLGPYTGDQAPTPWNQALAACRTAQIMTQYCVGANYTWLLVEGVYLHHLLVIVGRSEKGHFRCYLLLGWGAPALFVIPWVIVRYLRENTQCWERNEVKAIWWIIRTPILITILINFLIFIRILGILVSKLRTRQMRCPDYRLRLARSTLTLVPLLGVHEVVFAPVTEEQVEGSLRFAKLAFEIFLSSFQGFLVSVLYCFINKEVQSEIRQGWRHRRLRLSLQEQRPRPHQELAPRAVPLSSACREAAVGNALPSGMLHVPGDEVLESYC
Method: HEK293 cells were co-transfected with cDNA encoding GLP-1R or GIPR. In a test for determining the compound, the cells were inoculated in a 96-well plate 2 h in advance, the polypeptide compound was dissolved with DMSO, and diluted to different multiples with a culture medium containing 0.1% bovine serum albumin and added to the co-transfected cells.

ob/ob mice = test: Blood glucose reducing experiment, single subcutaneous injection in ob/ob mice; type: in vivo; conditions: 100 μg/kg single s.c.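 Further: random blood glucose read at each time point, decrease rate given as percentage fall versus the model control group.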
Method: The mice in each group received random blood glucose value measurement before (0 h) administration and 2, 4, 6, 10 and 24 h after administration, and then the time for measuring the random blood glucose was adjusted and prolonged to 34, 48, 58 or 72 h after administration according to the blood glucose condition of the mice in each group. Meanwhile, the random weight of the mice in each group before (0 h) administration and 24 h after administration was weighed, and then the random weight of the mice corresponding to the random blood glucose measurement condition 48 or 72 h after administration was weighed. The blood glucose decrease rate, the blood glucose curve area (AUC0-24 h Glu) within 24 h after administration and the decrease rate were calculated according to the following formula.
Blood glucose decrease rate=(blood glucose in the model control group−blood glucose in the administration group)/blood glucose in the model control group×100%
BG0, BG2, BG4, BG6, BG10 and BG24 represented the blood glucose values before administration (0 h) and 2, 4, 6, 10 and 24 h after administration respectively.
AUC0-24 h Glu(mmol/Lh·r) decrease rate=(model control group AUC0-24 h Glu−administration group AUC0-24 h Glu/model control group AUC0-24 h Glu×100%
Experiments were carried out twice, at an interval of 8-10 days.

[1] = Effect on random weight of ob/ob mice after single subcutaneous injection; type: in vivo; conditions: 100 μg/kg single s.c., X ± s, n = 7
Method: The mice in each group received random blood glucose value measurement before (0 h) administration and 2, 4, 6, 10 and 24 h after administration, and then the time for measuring the random blood glucose was adjusted and prolonged to 34, 48, 58 or 72 h after administration according to the blood glucose condition of the mice in each group. Meanwhile, the random weight of the mice in each group before (0 h) administration and 24 h after administration was weighed, and then the random weight of the mice corresponding to the random blood glucose measurement condition 48 or 72 h after administration was weighed.

CC[C@H](C)[C@H](NC(=O)[C@H](CCCCN)NC(=O)[C@H](CC(=O)O)NC(=O)[C@H](CC(C)C)NC(=O)[C@H](C)NC(=O)[C@@H](NC(=O)[C@H](CO)NC(=O)[C@H](Cc1ccc(O)cc1)NC(=O)[C@H](CC(=O)O)NC(=O)[C@H](CO)NC(=O)[C@@H](NC(=O)[C@H](Cc1ccccc1)NC(=O)[C@@H](NC(=O)CNC(=O)[C@H](CCC(=O)O)NC(=O)C(C)(C)NC(=O)[C@@H](N)Cc1ccc(O)cc1)[C@@H](C)O)[C@@H](C)O)[C@@H](C)CC)C(=O)N[C@@H](C)C(=O)N[C@@H](CCC(N)=O)C(=O)N[C@@H](CCCCNC(=O)COCCOCCNC(=O)COCCOCCNC(=O)CC[C@H](NC(=O)CCCCCCCCCCCCCCCCC(=O)O)C(=O)O)C(=O)N[C@@H](C)C(=O)N[C@@H](Cc1ccccc1)C(=O)N[C@H](C(=O)N[C@@H](CCC(N)=O)C(=O)N[C@@H](Cc1c[nH]c2ccccc12)C(=O)N[C@@H](CC(C)C)C(=O)N[C@H](C(=O)N[C@@H](C)C(=O)NCC(=O)NCC(=O)N1CCC[C@H]1C(=O)N[C@@H](CO)C(=O)N[C@@H](CO)C(=O)NCC(=O)N[C@@H](C)C(=O)N1CCC[C@H]1C(=O)N1CCC[C@H]1C(=O)N1CCC[C@H]1C(=O)N[C@@H](CO)C(N)=O)[C@@H](C)CC)C(C)C [ID NO: 6] (H-Y[Aib]EGTFTSDYSIALDKIAQK([AEEA-AEEA-γGlu-C18 diacid])AFVQWLIAGGPSSGAPPPS-NH2)
EC50 (mGLP-1R): 2.58 pM
EC50 (mGIPR): 9.29 pM
Blood glucose at different time after administration, 0 h (ob/ob mice; 0 h (before administration), X ± s, n = 7): 20.64 ± 0.77 mmol/L
Decrease rate of blood glucose at different time after administration, 2 h (ob/ob mice; 2 h): 52.7%
Blood glucose at different time after administration, 2 h (ob/ob mice; 2 h, X ± s, n = 7): 9.76 ± 0.83 mmol/L
Decrease rate of blood glucose at different time after administration, 4 h (ob/ob mice; 4 h): 56.6%
Blood glucose at different time after administration, 4 h (ob/ob mice; 4 h, X ± s, n = 7): 8.96 ± 0.77 mmol/L
Decrease rate of blood glucose at different time after administration, 6 h (ob/ob mice; 6 h): 58.6%
Blood glucose at different time after administration, 6 h (ob/ob mice; 6 h, X ± s, n = 7): 8.55 ± 0.96 mmol/L
Decrease rate of blood glucose at different time after administration, 10 h (ob/ob mice; 10 h): 51.9%
Blood glucose at different time after administration, 10 h (ob/ob mice; 10 h, X ± s, n = 7): 9.93 ± 0.76 mmol/L
Decrease rate of blood glucose at different time after administration, 24 h (ob/ob mice; 24 h): 49.0%
Blood glucose at different time after administration, 24 h (ob/ob mice; 24 h, X ± s, n = 7): 10.53 ± 1.21 mmol/L
Decrease rate of blood glucose at different time after administration, 34 h (ob/ob mice; 34 h): 36.4%
Blood glucose at different time after administration, 34 h (ob/ob mice; 34 h, X ± s, n = 7): 13.13 ± 2.21 mmol/L
Decrease rate of blood glucose at different time after administration, 48 h (ob/ob mice; 48 h): 13.8%
AUC0-24 h Glu (ob/ob mice; blood glucose curve area within 24 h, X ± s, n = 7): 246.81 ± 18.95 mmol·h/L
AUC0-24 h Glu Decrease rate (ob/ob mice; versus model control group): 51.7%
Changes of random body weight at different time after administration, 0 h ([1]; 0 h): 0.0 ± 0.0 g
Random body weight at different time after administration, 0 h ([1]; 0 h): 43.5 ± 0.6 g
Changes of random body weight at different time after administration, 24 h ([1]; 24 h): -1.5 ± 0.2 g
Random body weight at different time after administration, 24 h ([1]; 24 h): 42.1 ± 0.7 g
Changes of random body weight at different time after administration, 48 h ([1]; 48 h): -0.8 ± 0.1 g
Random body weight at different time after administration, 48 h ([1]; 48 h): 42.7 ± 0.7 g
